Laboratory results from patent publication US11806344B2, “Pharmaceutical composition comprising mineralocorticoid receptor antagonist and use thereof” (priority 2016, dated 2023).
Entries after “also recorded” stand apart in the source; their conditions may differ. Where two headings read alike, the source gives them in different places.

How the values were obtained:
[1] = Effect of surfactants on absorption in SD rats (Example 4-1); details: rat, plasma, oral, 1 mg/kg
Procedure: Blood collection: The animals were fixed and had their tails warmed in a water bath 10 min prior to blood collection; about 100 μL of blood was collected through the tail vein for each animal and put into an anticoagulation tube containing hepatin; the blood samples were subject to centrifugation at 8000 rpm for 6 min at 4° C. to obtain plasma samples, which had to be obtained within 30 minutes after blood was collected; the plasma samples were stored in a freezer at −80° C. for future tests.
Sample analysis: 50 μL of each plasma sample from the freezer was transferred to a centrifugal tube; 100 μL of water and 400 μL of MTBE standard solution (50 ng/mL) were added into the tube and well mixed with the plasma; the obtained mixture was mixed for 10 minutes using a vortex mixer and then subject to centrifugation for 5 minutes (12000 r/min); 300 μL of the supernatant was transferred to another centrifugal tube and blown dry with nitrogen gas; the resultant substance was dissolved in 200 μL of a solution consisting of methanol and water at a ratio of 1:1, of which 20 μL was used for the LC-MS/MS measurement.
Data processing: the compound concentration was output by Analyst 1.6.1 (AB Sciex); the means, standard deviations, and variation coefficients were calculated using Microsoft Excel (no calculation needed if these parameters were directed output by Analyst 1.6.1), and pharmacokinetic parameters were determined using the NCA analysis object in Pharsight Phoenix 6.3.

[2] = Absorption of capsules of Capsule formulation 5 in Beagle dogs (Example 3-4); format: in vivo; details: dog, plasma; mean of four Beagle dogs, oral, 2.67 mg/kg; read-out: BA % (Mean, average bioavailability)
Procedure: Capsule of Capsule formulation 5 as prepared in Example 2, 10 mg of Compound I per capsule.
Solutions: 5% DMSO+95% (6% HP-β-CD solution)
Animals: Four Beagle Dogs.
(1) Administration of capsules. All animals fasted for 12 h or longer before drug administration, and food was supplied 4 h after drug administration, with always ad libitum access to water. Beagle dogs were orally given the capsule of Capsule formulation 5 as prepared in Example 2 (two capsules for each Beagle, 10 mg of Compound I per capsule) in a single dose, and 200 μL of blood was collected for each animal, via the small saphenous vein, immediately prior to the administration (0 h) and 0.17 h, 0.50 h, 0.75 h, 1.0 h, 2.0 h, 4.0 h, 6.0 h, 8.0 h, 12 h and 24 h after the administration. The collected blood was stored in a dry tube with heparin (normal saline containing 0.1% heparin sodium). (2) Plasma preparation. The whole blood samples collected in step (1) were subject to centrifugation at a low speed (8000 r/min, 6 min, 4° C.) to separate the plasma (the whole blood was stored in a mobile freezer at about 0 to 4° C., and plasma had to be separated within 30 minutes after the blood collection), and the plasma was kept in dark in a freezer at −70° C. (or lower) for future analysis.

[3] = Water solubility and permeation of Compound I (statement); format: physicochemical
[4] = tested on: Dahl/ss rats with salt induced renal injury; test: Efficacy test in salt-sensitive rats with salt induced renal injury (Example 6); format: in vivo; details: Dahl/ss rats on 4% NaCl diet
Procedure: Animals: Male Dahl/Ss Rats
Solid dispersions of Compound I (Compound I:PVPK30=1:8 (w/w)): Solid dispersions of Compound I was formulated with suitable amount of sterile water for injection into suspensions having concentrations of 0.03, 0.10, 0.30 and 1.00 mg/mL, respectively. The suspensions were prepared immediately before use. […]
One week before the experiment, the blood pressures were measured twice in rats by the tail-cuff blood pressure measurement so that rats could accommodate to the blood pressure monitoring operation. Then, immediately before the test, the blood pressure was determined and used as the baseline value. […]
Blood pressure (systolic blood pressure, SBP) measurement: Blood pressure was measured for 6 weeks, once a week, and the blood pressure changes in these groups were analyzed.
Pathological examination for the kidney and heart: At the end of the study, rats were sacrificed painlessly, from which bilateral kidneys and the heart were collected for histopathological analysis. The kidneys were stained using Hematoxylin-Eosin (HE) to semi-quantitatively evaluate renal injuries. The thickness of the left ventricular wall was measured for each heart to analyze the heart injury. […]

[5] = 13-week toxicity and pharmacokinetic study in SD rats with 4-week recovery (Example 5); format: in vivo; details: rat, in vivo; for AUC(0-t): SD, po, read-out: AUC0-24 h; for NOAEL at 13 weeks: oral, read-out: NOAEL (no observed adverse effect level)
Procedure: (§1) Sample to test: Solid dispersion of Compound I (Compound I:PVPK30=1:8 (w/w))
(§2) Animals: SD Rats, SPF Level.
(§3) Two hundred and twenty SD rats were used in the studies. Three groups, i.e., high dose group, intermediate dose group and low dose group, were administered with Compound I with following doses, 20 males and 20 females for each group. In specific, male animals were given the suspension at the doses of 3, 9 and 30 mg/kg/day, respectively, while the females were administered at the doses of 1, 3, and 10 mg/kg/day, respectively. The animals in the control group, 20 males and 20 females, were given purified water. All animals fasted overnight before blood collections and anatomical examinations.
(§4) In addition, for the pharmacokinetic study, 9 males and 9 females were assigned into the administration group, while 3 males and 3 females were for the control group.

[6] = tested on: SD rats; test: as above; format: in vivo; details: 13 weeks
Procedure: as §1, §2, §3, §4

[7] = tested on: healthy subjects; test: Safety, tolerability and pharmacokinetics in healthy subjects, multiple doses (Example 8); format: in vivo, human; details: for average steady-state AUC0-24 (AUCtau): 14 days
Procedure: Two groups of healthy subjects were given capsules once a day at daily doses of 2.5 mg (1 capsule for each administration, 2.5 mg of Compound I per capsule), and 5.0 mg (2 capsules for each administration, 2.5 mg of Compound I per capsule), respectively, each group containing 6 subjects. The administration continued for 14 consecutive days. The capsules used in this study were of Capsule formulation 4 prepared in Example 2.
Plasma samples were collected to measure plasma drug concentration, and the pharmacokinetic parameters were analyzed using the non-compartment model. Serum samples were collected to measure serum potassium levels.

[8] = healthy subjects, multiple doses 2.5 mg/day

N#Cc1ccc(N2N=C3c4ccc(C(=O)N5CCC(O)CC5)nc4CC[C@@H]3[C@@H]2C2CCCC2)cc1Cl [Compound I, 2-chloro-4-[(3S,3aR)-3-cyclopentyl-7-(4-hydroxylpiperidine-1-carbonyl)-3,3a,4,5-tetrahydro-2H-pyrazolo[3,4-f]quinolin-2-yl]benzonitrile]
bioavailability [1]: 64.7%
bioavailability [2]: 56.5%
permeation rate [3]: medium
solubility in water [3]: insoluble in water
AUC0-24 at which the drug takes effect (undulation point of SBP or UACR vs AUC0-24 curve) ([4]; 0.3-10 mg/kg/day intragastric twice a day, 42 days): 100 ng·h/mL
SBP and UACR change (observation) ([4]; beyond AUC of 100 h*ng/mL): SBP and UACR were significantly decreased
AUC(0-t) ([5]; female, 1 mg/kg/day, female SD rats, 1 mg/kg/day intragastric, 13 weeks): 4080 ng·h/mL
AUC(0-t) ([5]; female, 3 mg/kg/day, female SD rats, 3 mg/kg/day intragastric, 13 weeks): 15500 ng·h/mL
AUC(0-t) ([5]; female, 10 mg/kg/day, female SD rats, 10 mg/kg/day intragastric, 13 weeks): 43600 ng·h/mL
AUC(0-t) ([5]; male, 3 mg/kg/day, male SD rats, 3 mg/kg/day intragastric, 13 weeks): 5430 ng·h/mL
AUC(0-t) ([5]; male, 9 mg/kg/day, male SD rats, 9 mg/kg/day intragastric, 13 weeks): 16500 ng·h/mL
AUC(0-t) ([5]; male, 30 mg/kg/day, male SD rats, 30 mg/kg/day intragastric, 13 weeks (steady-state)): 49900 ng·h/mL
NOAEL at 13 weeks ([5]; female SD rats, 13 weeks): 10 mg/kg/day
NOAEL at 13 weeks ([5]; male SD rats, 13 weeks): 30 mg/kg/day
serum potassium level (observation) ([6]; SD rats, high dose/NOAEL (male 30, female 10 mg/kg/day)): no obvious abnormal serum potassium level was observed; also recorded: serum potassium level was not elevated
K+ (Mean ± SD) ([6]; female SD rats, 1 mg/kg/day intragastric): 4.4 ± 0.4 mmol/L
K+ (Mean ± SD) ([6]; female SD rats, 3 mg/kg/day intragastric): 4.4 ± 0.3 mmol/L
K+ (Mean ± SD) ([6]; female SD rats, 10 mg/kg/day intragastric): 4.5 ± 0.2 mmol/L
K+ (Mean ± SD) ([6]; male SD rats, 3 mg/kg/day intragastric): 5.0 ± 0.3 mmol/L
K+ (Mean ± SD) ([6]; male SD rats, 9 mg/kg/day intragastric): 5.0 ± 0.3 mmol/L
K+ (Mean ± SD) ([6]; male SD rats, 30 mg/kg/day intragastric): 5.1 ± 0.2 mmol/L
side effects (observation) ([6]; male SD rats, high dose 30 mg/kg/day): No obvious side effect was observed
serum potassium level (observation) ([7]; healthy subjects (6), multiple doses 5.0 mg/day): transient elevated serum potassium level observed in three subjects; also recorded: elevated serum potassium levels were observed in 3 subjects but were transient
serum potassium level (observation) [7, 8]: no elevated serum potassium level observed; also recorded: elevated serum potassium levels were not observed
average steady-state AUC0-24 (AUCtau) [7, 8]: 2863 ± 822 ng·h/mL
average steady-state AUC0-24 (AUCtau) ([7]; healthy subjects, multiple doses 5.0 mg/day): 6373 ± 1026 ng·h/mL
AUC individual variation: highest AUC vs lowest AUC subject ([7]; healthy volunteers, capsule, multiple doses 2.5 mg daily): 2.37 times
